Source: ChEMBL document CHEMBL5316327, “Design and Synthesis of Orally Active Quinolyl Pyrazinamides as Sigma 2 Receptor Ligands for the Treatment of Pancreatic Cancer” (J Med Chem, 2023)
Calls of active or inactive are those of the source. No cut-off for these calls is given here.

How the values were obtained:
[1] = target: D(1A) dopamine receptor (Homo sapiens, UniProt P21728); assay: Binding affinity to dopamine D1 receptor (unknown origin) assessed as inhibition constant
[2] = target: Muscarinic acetylcholine receptor M1 (Homo sapiens, UniProt P11229); assay: Binding affinity to M1 receptor (unknown origin) assessed as inhibition constant
Muscarinic acetylcholine receptor M1, sequence (P11229 whole entry): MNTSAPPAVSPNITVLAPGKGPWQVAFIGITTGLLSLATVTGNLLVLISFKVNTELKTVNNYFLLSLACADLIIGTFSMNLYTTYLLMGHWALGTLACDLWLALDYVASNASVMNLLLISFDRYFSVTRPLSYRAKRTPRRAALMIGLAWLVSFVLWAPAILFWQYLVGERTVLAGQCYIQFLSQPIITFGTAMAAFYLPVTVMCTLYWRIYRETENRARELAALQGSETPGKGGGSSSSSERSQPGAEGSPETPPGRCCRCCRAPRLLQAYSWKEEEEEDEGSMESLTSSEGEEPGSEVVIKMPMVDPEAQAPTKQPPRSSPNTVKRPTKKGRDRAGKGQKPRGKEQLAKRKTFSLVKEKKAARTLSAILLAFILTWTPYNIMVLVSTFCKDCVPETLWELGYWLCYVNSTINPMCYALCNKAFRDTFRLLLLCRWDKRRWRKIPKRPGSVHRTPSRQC

[3] = target: Histamine H2 receptor (Homo sapiens, UniProt P25021); assay: Binding affinity to histamine H2 receptor (unknown origin) assessed as inhibition constant
Histamine H2 receptor, sequence (P25021 whole entry): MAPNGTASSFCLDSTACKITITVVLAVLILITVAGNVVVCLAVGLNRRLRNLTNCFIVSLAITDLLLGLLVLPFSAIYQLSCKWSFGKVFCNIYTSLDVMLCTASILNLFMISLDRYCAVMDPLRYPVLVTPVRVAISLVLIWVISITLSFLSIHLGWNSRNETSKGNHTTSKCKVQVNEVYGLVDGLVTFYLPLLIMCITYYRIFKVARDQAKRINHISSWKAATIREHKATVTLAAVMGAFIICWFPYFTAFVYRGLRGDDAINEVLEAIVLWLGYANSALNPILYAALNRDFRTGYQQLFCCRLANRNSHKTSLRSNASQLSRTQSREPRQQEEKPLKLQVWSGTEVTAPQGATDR

[4] = target: 5-hydroxytryptamine receptor 1B (Homo sapiens, UniProt P28222); assay: Binding affinity to 5-HT1B receptor (unknown origin) assessed as inhibition constant
5-hydroxytryptamine receptor 1B, sequence (P28222 whole entry): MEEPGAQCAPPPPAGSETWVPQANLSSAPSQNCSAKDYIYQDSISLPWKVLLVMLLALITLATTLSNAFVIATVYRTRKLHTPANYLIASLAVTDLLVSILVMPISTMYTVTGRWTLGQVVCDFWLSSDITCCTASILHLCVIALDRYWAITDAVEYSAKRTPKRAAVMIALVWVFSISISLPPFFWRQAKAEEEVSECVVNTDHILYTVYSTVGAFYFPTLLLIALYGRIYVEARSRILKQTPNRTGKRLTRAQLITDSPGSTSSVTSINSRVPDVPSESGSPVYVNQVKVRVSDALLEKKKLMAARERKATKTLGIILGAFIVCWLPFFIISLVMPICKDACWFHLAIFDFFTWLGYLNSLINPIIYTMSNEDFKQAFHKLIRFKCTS

[5] = target: 5-hydroxytryptamine receptor 2B (Homo sapiens, UniProt P41595); assay: Binding affinity to 5-HT2B receptor (unknown origin) assessed as inhibition constant
5-hydroxytryptamine receptor 2B, sequence (P41595 whole entry): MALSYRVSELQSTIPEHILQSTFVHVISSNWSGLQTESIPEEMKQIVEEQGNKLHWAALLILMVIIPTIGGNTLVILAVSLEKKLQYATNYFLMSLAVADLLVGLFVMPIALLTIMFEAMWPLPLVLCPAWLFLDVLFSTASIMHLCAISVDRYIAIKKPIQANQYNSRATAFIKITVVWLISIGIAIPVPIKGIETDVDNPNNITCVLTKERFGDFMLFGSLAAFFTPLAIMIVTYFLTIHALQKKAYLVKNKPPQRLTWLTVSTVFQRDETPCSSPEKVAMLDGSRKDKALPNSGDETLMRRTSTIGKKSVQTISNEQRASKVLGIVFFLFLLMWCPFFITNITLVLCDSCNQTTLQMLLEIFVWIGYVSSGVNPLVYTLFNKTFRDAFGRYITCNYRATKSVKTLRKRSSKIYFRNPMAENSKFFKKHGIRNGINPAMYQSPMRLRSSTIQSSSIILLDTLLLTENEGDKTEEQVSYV

[6] = target: 5-hydroxytryptamine receptor 2A (Homo sapiens, UniProt P28223); assay: Binding affinity to 5-HT2A receptor (unknown origin) assessed as inhibition constant
5-hydroxytryptamine receptor 2A, sequence (P28223 whole entry): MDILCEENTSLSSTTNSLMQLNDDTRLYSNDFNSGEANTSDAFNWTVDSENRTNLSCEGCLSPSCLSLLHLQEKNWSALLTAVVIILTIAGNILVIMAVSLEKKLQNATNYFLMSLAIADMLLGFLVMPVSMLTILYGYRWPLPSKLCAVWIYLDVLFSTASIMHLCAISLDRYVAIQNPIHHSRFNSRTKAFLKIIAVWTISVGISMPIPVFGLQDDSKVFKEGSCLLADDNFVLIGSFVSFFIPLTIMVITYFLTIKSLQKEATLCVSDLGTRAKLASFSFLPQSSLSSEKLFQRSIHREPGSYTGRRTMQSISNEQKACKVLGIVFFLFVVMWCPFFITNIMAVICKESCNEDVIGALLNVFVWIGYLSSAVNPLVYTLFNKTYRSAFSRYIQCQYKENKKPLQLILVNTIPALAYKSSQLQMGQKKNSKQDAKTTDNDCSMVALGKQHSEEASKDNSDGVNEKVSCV

[7] = target: 5-hydroxytryptamine receptor 2C (Homo sapiens, UniProt P28335); assay: Binding affinity to 5-HT2C receptor (unknown origin) assessed as inhibition constant
5-hydroxytryptamine receptor 2C, sequence (P28335 whole entry): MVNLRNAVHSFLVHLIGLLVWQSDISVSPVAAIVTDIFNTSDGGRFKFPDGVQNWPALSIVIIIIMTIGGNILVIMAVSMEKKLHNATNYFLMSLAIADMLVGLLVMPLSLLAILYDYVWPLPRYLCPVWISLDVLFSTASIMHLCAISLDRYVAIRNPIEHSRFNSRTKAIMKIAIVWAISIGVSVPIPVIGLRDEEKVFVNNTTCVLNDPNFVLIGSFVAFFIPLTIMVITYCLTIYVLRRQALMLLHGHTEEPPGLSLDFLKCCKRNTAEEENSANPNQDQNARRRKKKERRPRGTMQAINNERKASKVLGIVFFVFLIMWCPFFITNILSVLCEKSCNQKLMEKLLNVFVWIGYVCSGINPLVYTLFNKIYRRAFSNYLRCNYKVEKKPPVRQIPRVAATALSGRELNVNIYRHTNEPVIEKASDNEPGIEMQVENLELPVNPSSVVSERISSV

[8] = Metabolic stability in mouse liver microsomes assessed as half life at 10 uM measured upto 60 mins in presence of NADPH by LC-MS/MS analysis; format: ADME, Microsome; conditions: 1 h
[9] = Metabolic stability in human liver microsomes assessed as half life at 10 uM measured upto 60 mins in presence of NADPH by LC-MS/MS analysis; format: ADME, Microsome; conditions: liver microsomes
[10] = system: MIA PaCa-2; assay: Induction of apoptosis in human MIA PaCa-2 cells assessed as viable cells at […] measured after 48 hrs by Annexin V-Alexa Fluor 488/propidium iodide staining based flow cytometry (reference value: 82.23%); format: functional; conditions: dose 2.5 µM, read-out: Activity
[11] = system: MIA PaCa-2; assay: Induction of apoptosis in human MIA PaCa-2 cells assessed as early apoptotic cells at 5.0 uM measured after 48 hrs by Annexin V-Alexa Fluor 488/propidium iodide staining based flow cytometry (reference value: 4.11%); format: functional
[12] = system: MIA PaCa-2; assay: Induction of apoptosis in human MIA PaCa-2 cells assessed as late apoptotic cells at 5.0 uM measured after 48 hrs by Annexin V-Alexa Fluor 488/propidium iodide staining based flow cytometry (reference value: 6.63%); format: functional
[13] = system: MIA PaCa-2; assay: Induction of apoptosis in human MIA PaCa-2 cells assessed as necrotic cells at […] measured after 48 hrs by Annexin V-Alexa Fluor 488/propidium iodide staining based flow cytometry (reference value: 7.03%); format: functional; conditions: dose 2.5 µM
[14] = system: HCT-116; assay: Induction of apoptosis in human HCT-116 cells assessed as viable cells at 1.0 uM measured after 48 hrs by Annexin V-Alexa Fluor 488/propidium iodide staining based flow cytometry (reference value: 79.69%); format: functional; conditions: read-out: Activity
[15] = system: HCT-116; assay: Induction of apoptosis in human HCT-116 cells assessed as viable cells at […] measured after 48 hrs by Annexin V-Alexa Fluor 488/propidium iodide staining based flow cytometry (reference value: 79.69%); format: functional; conditions: dose 2.5 µM, read-out: Activity
[16] = system: HCT-116; assay: Induction of apoptosis in human HCT-116 cells assessed as early apoptotic cells at 1.0 uM measured after 48 hrs by Annexin V-Alexa Fluor 488/propidium iodide staining based flow cytometry (reference value: 2.77%); format: functional
[17] = system: HCT-116; assay: Induction of apoptosis in human HCT-116 cells assessed as early apoptotic cells at 5.0 uM measured after 48 hrs by Annexin V-Alexa Fluor 488/propidium iodide staining based flow cytometry (reference value: 2.77%); format: functional
[18] = system: HCT-116; assay: Induction of apoptosis in human HCT-116 cells assessed as late apoptotic cells at 10.0 uM measured after 48 hrs by Annexin V-Alexa Fluor 488/propidium iodide staining based flow cytometry (reference value: 8.48%); format: functional
[19] = system: HCT-116; assay: Induction of apoptosis in human HCT-116 cells assessed as necrotic cells at 5.0 uM measured after 48 hrs by Annexin V-Alexa Fluor 488/propidium iodide staining based flow cytometry (reference value: 9.06%); format: functional
[20] = system: HCT-116; assay: Induction of apoptosis in human HCT-116 cells assessed as necrotic cells at 10.0 uM measured after 48 hrs by Annexin V-Alexa Fluor 488/propidium iodide staining based flow cytometry (reference value: 9.06%); format: functional
[21] = system: MIA PaCa-2; assay: Induction of cell cycle arrest in human MIA PaCa-2 cells assessed as accumulation of cells in G0/G1 phase at 1 uM measured after 24 hrs by propidium iodide staining-based flow cytometric analysis (reference value: 53%); format: functional
[22] = system: MIA PaCa-2; assay: Induction of cell cycle arrest in human MIA PaCa-2 cells assessed as accumulation of cells in S phase at 5 uM measured after 24 hrs by propidium iodide staining-based flow cytometric analysis (reference value: 31%); format: functional
[23] = system: MIA PaCa-2; assay: Induction of cell cycle arrest in human MIA PaCa-2 cells assessed as accumulation of cells in G2/M phase at […] measured after 24 hrs by propidium iodide staining-based flow cytometric analysis (reference value: 16%); format: functional; conditions: dose 2.5 µM
[24] = system: MIA PaCa-2; assay: Induction of cell cycle arrest in human MIA PaCa-2 cells assessed as accumulation of cells in G2/M phase at 10 uM measured after 24 hrs by propidium iodide staining-based flow cytometric analysis (reference value: 16%); format: functional
[25] = system: HCT-116; assay: Induction of cell cycle arrest in human HCT-116 cells assessed as accumulation of cells in G0/G1 phase at 10 uM measured after 24 hrs by propidium iodide staining-based flow cytometric analysis (reference value: 43%); format: functional
[26] = system: Panc02; assay: Antitumor activity against mouse Panc02 cells xenografted in C57BL/6 mouse model assessed as delayed tumor growth at 30 mg/kg, po administered daily for 32 days in presence of copper sulfate by caliper method; format: functional, organism-based; conditions: time 32.0 day
[27] = Toxicity in C57BL/6 mouse assessed as effect on body weight at 30 mg/kg, po administered for 32 days and measured on day 4,7 in presence of copper sulfate; format: organism-based; conditions: in vivo, 768 h, time 32 day
[28] = system: MIA PaCa-2; assay: Synergistic cytotoxicity against human MIA PaCa-2 cells at upto 1 uM measured after 7 days in presence of ammonium tetrathiomolybdate by crystal violet staining based analysis; format: functional, cell-based; conditions: time 7.0 day
[29] = system: HCT-116; assay: Antagonistic cytotoxicity against human HCT-116 cells at upto 1 uM measured after 6 days in presence of disulfiram by crystal violet staining based analysis; format: functional, cell-based; conditions: time 6.0 day
[30] = system: HCT-116; assay: Antagonistic cytotoxicity against human HCT-116 cells at upto 1 uM measured after 6 days in presence of elesclomol by crystal violet staining based analysis; format: functional, cell-based; conditions: time 6.0 day
[31] = system: HCT-116; assay: Synergistic cytotoxicity against human HCT-116 cells at upto 1 uM measured after 6 days in presence of silver acetate by crystal violet staining based analysis; format: functional, cell-based; conditions: time 6.0 day
[32] = system: MIA PaCa-2; assay: Synergistic ferroptosis activity in human MIA-PaCa-2 cells at upto 1 uM measured after 7 days in presence of FIN56 by crystal violet staining based analysis; format: functional, cell-based; conditions: time 7.0 day
[33] = system: MIA PaCa-2; assay: Synergistic ferroptosis activity in human MIA-PaCa-2 cells at upto 1 uM measured after 7 days in presence of chloroquine by crystal violet staining based analysis; format: functional, cell-based; conditions: time 7.0 day
[34] = system: MIA PaCa-2; assay: Additive cytotoxicity in human MIA PaCa-2 cells at upto 1 uM measured after 24 hrs in presence of roluperidone; format: functional, cell-based
[35] = system: MIA PaCa-2; assay: Synergistic cytotoxicity in human MIA PaCa-2 cells at upto 1 uM measured after 7 days in presence of CI-27 by crystal violet staining based analysis; format: functional, cell-based; conditions: time 7.0 day

D(1A) dopamine receptor, sequence (P21728 whole entry): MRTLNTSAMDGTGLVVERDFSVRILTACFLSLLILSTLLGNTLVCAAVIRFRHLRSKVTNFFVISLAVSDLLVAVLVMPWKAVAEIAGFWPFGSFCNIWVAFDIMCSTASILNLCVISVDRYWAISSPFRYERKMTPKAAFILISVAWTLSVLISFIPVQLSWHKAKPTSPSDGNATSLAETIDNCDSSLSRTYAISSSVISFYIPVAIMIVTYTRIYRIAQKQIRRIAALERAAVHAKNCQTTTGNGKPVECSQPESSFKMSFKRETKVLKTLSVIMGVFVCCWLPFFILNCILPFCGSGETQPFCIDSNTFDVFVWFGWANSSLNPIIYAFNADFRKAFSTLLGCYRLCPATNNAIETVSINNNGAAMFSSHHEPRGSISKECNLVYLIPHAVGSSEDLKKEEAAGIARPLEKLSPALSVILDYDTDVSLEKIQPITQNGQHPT

**Q.** Which Ki [1] does the source give for CCN(CC)CCCC(C)Nc1cnc(C(=O)Nc2ccc(Cl)c3cccnc23)cn1 (stereo not given) here?
**A.** 1.44 µM

**Q.** And the Ki [2]?
**A.** 4.2 µM

**Q.** What about the Ki [3] of the same compound?
**A.** 91.1 µM

**Q.** And the Ki [4]?
**A.** 0.646 µM

**Q.** What about the Ki [5] of the same compound?
**A.** 0.427 µM

**Q.** And the Ki [6]?
**A.** 1.25 µM

**Q.** And the Ki [7]?
**A.** 0.471 µM

**Q.** And the t1/2 [8]?
**A.** 1 h

**Q.** What about the half-life at 10 µM [9] of the same compound?
**A.** > 1 h

**Q.** What about the viability at […] [10] of the same compound?
**A.** 54.5%

**Q.** What about the Activity [11] of the same compound?
**A.** 22.26%

**Q.** And the Activity [12]?
**A.** 40.03%

**Q.** What about the Activity [13] of the same compound?
**A.** 5.91%

**Q.** What about the viability at 1 µM [14] of the same compound?
**A.** 78.3%

**Q.** What about the viability at […] [15] of the same compound?
**A.** 68.1%

**Q.** What about the Activity [16] of the same compound?
**A.** 2.38%

**Q.** And the Activity [17]?
**A.** 12.38%

**Q.** What about the Activity [18] of the same compound?
**A.** 47.98%

**Q.** What about the Activity [19] of the same compound?
**A.** 5.1%

**Q.** What about the Activity [20] of the same compound?
**A.** 2.37%

**Q.** What about the Activity [21] of the same compound?
**A.** 46%

**Q.** And the Activity [22]?
**A.** 22%

**Q.** And the Activity [23]?
**A.** 16%

**Q.** What about the Activity [24] of the same compound?
**A.** 17%

**Q.** What about the Activity [25] of the same compound?
**A.** 57%

**Q.** What about the Activity [26] of the same compound?
**A.** Active

**Q.** What about the Activity [27] of the same compound?
**A.** Toxic

**Q.** What about the Activity [28] of the same compound?
**A.** inactive

**Q.** What about the Activity [29] of the same compound?
**A.** inactive

**Q.** What about the Activity [30] of the same compound?
**A.** inactive

**Q.** What about the Activity [31] of the same compound?
**A.** inactive

**Q.** And the Activity [32]?
**A.** Active

**Q.** What about the Activity [33] of the same compound?
**A.** Active

**Q.** And the Activity [34]?
**A.** Active

**Q.** What about the Activity [35] of the same compound?
**A.** inactive
